The record followed here is patent publication US20260273072A1, “NOVEL PLK1 DEGRADATION INDUCING COMPOUND” (UPPTHERA, INC., priority 2023, published 2026).

As usually defined, the IC50 is the midpoint of a concentration-inhibition curve.

Type in all cases: cell-based
In experiment [1] the target is T1, PLK1 (Homo sapiens, UniProt P53350).
T1 construct: endogenous in cells; host or cells: HeLa LgBit (Plk1-HiBit KI): HeLa stably expressing LgBit, with a CRISPR/Cas9 knock-in of HiBit at the endogenous PLK1 locus
The experiment is described as follows: Luciferase assay for PLK1 in HeLa LgBit (Plk1-HiBit KI) cell line. As to conditions: 300 nM compound, luminescence after 9 hours. In a few lines: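 HeLa LgBit cells with endogenous PLK1 C-terminally HiBit-tagged by CRISPR knock-in; released from 24 h 2 mM thymidine block, seeded, grown 18 h. Compounds at 300 nM with Endurazine substrate; luminescence (470-480 nm) tracked in real time, expressed as ratio to DMSO.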
For orientation: The HiBiT peptide binds its large partner to form an active luciferase.

In experiment [2] the test system is NCI-H526 cell line. Kind of experiment: Cell viability assay for NCI-H526 cell line (EZ-Cytox). As to conditions: Homo sapiens, NCI-H526, 120 h; H526 cells, 5 days, 3000 nM to 0.46 nM. In a few lines: (§1)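 Human SCLC lines cultured with compound for 5 days in a CO2 incubator; viability read by EZ-Cytox absorbance at 450 nm after 3 min shaking. IC50 reported in activity bins (A: <30 nM up to E: <400 nM).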

The subject of experiment [3] is NCI-H69 cell line. Kind of experiment: Cell viability assay for NCI-H69 cell line (EZ-Cytox). As to conditions: Homo sapiens, NCI-H69, 120 h; H69 cells, 5 days, 3000 nM to 0.46 nM. Summed up:
as §1

The subject of experiment [4] is MRC-5 cell line. Kind of experiment: Cell viability assay for MRC-5 cell line (EZ-Cytox). As to conditions: Homo sapiens, MRC5, 120 h; MRC-5 normal cell line, 5 days, 10000 nM to 1.52 nM; read-out: Activity: IC50 value, cell viability, MRC-5 cell line (Exemplary Compounds). The procedure: 4. Cell Viability Assay for MRC-5 Cell Line
(1) Culture of MRC-5 Cell Line
The MRC-5 cell line was purchased from KCLB. Passage of cultured cells was maintained within P15.
(2) Treatment of Compounds of the Present Invention
Then, it was cultured in 37° C. CO2 incubator (Thermo Fisher Scientific) for 5 days.
(3) Cytotoxicity Experiment
CO2 incubator for 4 hours.

T1 sequence (P53350 whole entry): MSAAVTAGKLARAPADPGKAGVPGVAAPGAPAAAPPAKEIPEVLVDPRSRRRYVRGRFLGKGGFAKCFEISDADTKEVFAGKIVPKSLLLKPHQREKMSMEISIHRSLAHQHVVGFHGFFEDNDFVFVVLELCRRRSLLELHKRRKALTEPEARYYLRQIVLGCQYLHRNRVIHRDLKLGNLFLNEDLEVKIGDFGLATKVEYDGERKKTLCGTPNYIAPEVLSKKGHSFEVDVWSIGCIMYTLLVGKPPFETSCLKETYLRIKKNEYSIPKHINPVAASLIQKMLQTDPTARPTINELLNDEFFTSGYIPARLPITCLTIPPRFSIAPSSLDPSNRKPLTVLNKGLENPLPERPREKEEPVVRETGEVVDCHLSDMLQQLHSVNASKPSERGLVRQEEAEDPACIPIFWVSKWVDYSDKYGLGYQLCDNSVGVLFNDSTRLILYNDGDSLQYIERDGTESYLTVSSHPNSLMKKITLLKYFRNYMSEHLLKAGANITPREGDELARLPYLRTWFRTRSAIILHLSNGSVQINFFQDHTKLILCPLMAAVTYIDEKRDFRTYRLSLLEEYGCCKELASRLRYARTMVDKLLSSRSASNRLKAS

As for `COc1cc(C(=O)NN2CCC(CCN3CCN(c4cc(C#N)c(NC5CCC(=O)NC5=O)cc4F)CC3)CC2)ccc1Nc1ncc2c(n1)N(C1CCCC1)CC(F)(F)C(=O)N2C` (centres unmarked) [Compound 76, N(4-(2-(4-(5-cyano-4-((2,6-dioxopiperidin-3-yl)amino)-2-fluorophenyl)piperazin-1-yl)ethyl)piperidin-1-yl)-4-((9-cyclopentyl-7,7-difluoro-5-methyl-6-oxo-6,7,8,9-tetrahydro-5H-pyrimido[4,5-b][1,4]diazepin-2-yl)amino)-3-methoxybenzamide], in experiment [1], the “Activity: ratio of the luminescence value of compound treatment group to DMSO treatment group” value (“Activity: ratio” below) is “++ (++: <0.5)”. In addition, the IC50 in experiment [2] was less than 30 nM; in experiment [3] it was less than 30 nM; in experiment [4], greater than 10000 nM.
On to `COc1cc(C(=O)NN2CCC(CCN3CCN(c4ccc(NC5CCC(=O)NC5=O)cc4F)CC3)CC2)ccc1Nc1ncc2c(n1)N(C(C)C)CC(F)(F)C(=O)N2C` (centres unmarked) [Compound 29, 4-((7,7-difluoro-9-isopropyl-5-methyl-6-oxo-6,7,8,9-tetrahydro-5H-pyrimido[4,5-b][1,4]diazepin-2-yl)amino)-N-(4-(2-(4-(4-((2,6-dioxopiperidin-3-yl)amino)-2-fluorophenyl)piperazin-1-yl)ethyl)piperidin-1-yl)-3-methoxybenzamide], for which the “Activity: ratio” value in experiment [1] is listed as “+++ (+++: <0.3)”. The IC50 in experiment [2] was less than 30 nM; in experiment [3] it was less than 30 nM; in experiment [4] it was greater than 10000 nM.
For the molecule `COc1cc(C(=O)NC2CCN(CCN3CCN(c4cc(Cl)c(NC5CCC(=O)NC5=O)cc4F)CC3)CC2)c(F)cc1Nc1ncc2c(n1)N(C(C)C)CC(F)(F)C(=O)N2C` (centres unmarked) [Compound 72, N(1-(2-(4-(5-chloro-4-((2,6-dioxopiperidin-3-yl)amino)-2-fluorophenyl)piperazin-1-yl)ethyl)piperidin-4-yl)-4-((7,7-difluoro-9-isopropyl-5-methyl-6-oxo-6,7,8,9-tetrahydro-5H-pyrimido[4,5-b][1,4]diazepin-2-yl)amino)-2-fluoro-5-methoxybenzamide], the “Activity: ratio” value in experiment [1] is “++ (++: <0.5)”. Also, the IC50 was less than 50 nM in experiment [2], less than 100 nM in experiment [3] and greater than 10000 nM in experiment [4].
For the molecule `COc1cc(C(=O)N[C@H]2CC[C@H](CN(C)C3CCN(c4cnc(C5CCC(=O)NC5=O)cc4C)CC3)CC2)ccc1Nc1ncc2c(n1)N(C(C)C)CC(F)(F)C(=O)N2C` (some centres unmarked) [Compound 16, 4-((7,7-difluoro-9-isopropyl-5-methyl-6-oxo-6,7,8,9-tetrahydro-5H-pyrimido[4,5-b][1,4]diazepin-2-yl)amino)-N-((1r,4r)-4-(((1-(6-(2,6-dioxopiperidin-3-yl)-4-methylpyridin-3-yl)piperidin-4-yl)(methyl)amino)methyl)cyclohexyl)-3-methoxybenzamide], the “Activity: ratio” value in experiment [1] is “+++ (+++: <0.3)”. Besides, the results for the IC50 in experiment [2], in experiment [3] and in experiment [4] were less than 30 nM, less than 30 nM and greater than 10000 nM, respectively.
Turning to `COc1cc(C(=O)NC2CCC(N(C)CC3CCN(c4ccc(C5CCC(=O)NC5=O)cc4C)CC3)CC2)ccc1Nc1ncc2c(n1)N(C1CCCC1)CC(F)(F)C(=O)N2C` (centres unmarked) [Compound 6, 4-((9-cyclopentyl-7,7-difluoro-5-methyl-6-oxo-6,7,8,9-tetrahydro-5H-pyrimido[4,5-b][1,4]diazepin-2-yl)amino)-N-((1r,4r)-4-(((1-(4-(2,6-dioxopiperidin-3-yl)-2-methylphenyl)piperidin-4-yl)methyl)(methyl)amino)cyclohexyl)-3-methoxybenzamide], in experiment [1], the “Activity: ratio” value is reported as “+++ (+++: <0.3)”. Besides, the IC50 in experiment [2] is less than 100 nM; in experiment [3], less than 50 nM; in experiment [4], greater than 10000 nM.
